Key:
MCF-7 cells [1] = assay: Apoptosis assay, annexin V/PI flow cytometry; assay type: cell-based, human; settings: 24 h
Protocol: Qualitative analysis of different stages of apoptosis in MCF-7 cells using AO/EtBr dual staining was further quantitatively validated using annexin V/PI staining. Annexin V binds with the exposed phosphatidyl serine of apoptotic cells in a calcium-dependent manner and permits the determination of a number of cells in different stages of apoptosis. At the same time, PI binds with the nucleic acid of dead cells. In brief, cells were plated in a 6-well cell culture plate followed by exposure to lower, IC50, and higher concentrations of compound VI(i), as described in the above experiments. Following 24 h of incubation, treated cells were harvested using […] EDTA; then, annexin V/PI staining was performed, which was incubated for 30 min at 37 °C. The population of the apoptotic cells was examined by evaluating the cell suspension using a flow cytometer.

MCF-7 cells [2] = assay: ROS detection with DCFH-DA; assay type: cell-based, human; settings: MCF-7, 40, 60, 80 µg/mL, vs control
Description: ROS are commonly produced as a result of the cellular metabolic routes, and they play a key role as a secondary messenger in the healthy physiological system, but elevated quantities of ROS are the reason for various pathological conditions. To assess oxidative stress (ROS)-mediated apoptosis, DCFH-DA (2′,7′-dichlorodihydrofluorescein diacetate) dye was used as ROS transforms DCFH to DCF, producing a green fluorescence. The intensity of green fluorescence emitted is directly correlated with the amount of ROS produced by the cells in the treatment groups. Briefly, MCF-7 cells were passaged then seeded (5 × 10^4 cells /well) in a 12-well plate and exposed to all three (lower, IC50, higher) concentrations of compound VI(i); then, overnight incubation was undertaken with 5% carbon dioxide at 37 °C. To assess the generated ROS, treated cells (MCF-7) were washed with PBS. Staining was undertaken using DCFH-DA and photographed with the help of a fluorescence microscope (inverted) in the green and phase contrast channels.

HDAC6 = molecular target: T1, HDAC6 (Homo sapiens, UniProt Q9UBN7); assay: HDAC inhibition assay (color de lys ELISA kit), HDAC6; assay type: biochemical; settings: HeLa nuclear extract as source of HDAC activity
T1 construct: The HeLa nuclear extract was used as a source of HDAC activity; host or cells: HeLa (nuclear extract / cells)
T1 sequence (Q9UBN7 1-1215): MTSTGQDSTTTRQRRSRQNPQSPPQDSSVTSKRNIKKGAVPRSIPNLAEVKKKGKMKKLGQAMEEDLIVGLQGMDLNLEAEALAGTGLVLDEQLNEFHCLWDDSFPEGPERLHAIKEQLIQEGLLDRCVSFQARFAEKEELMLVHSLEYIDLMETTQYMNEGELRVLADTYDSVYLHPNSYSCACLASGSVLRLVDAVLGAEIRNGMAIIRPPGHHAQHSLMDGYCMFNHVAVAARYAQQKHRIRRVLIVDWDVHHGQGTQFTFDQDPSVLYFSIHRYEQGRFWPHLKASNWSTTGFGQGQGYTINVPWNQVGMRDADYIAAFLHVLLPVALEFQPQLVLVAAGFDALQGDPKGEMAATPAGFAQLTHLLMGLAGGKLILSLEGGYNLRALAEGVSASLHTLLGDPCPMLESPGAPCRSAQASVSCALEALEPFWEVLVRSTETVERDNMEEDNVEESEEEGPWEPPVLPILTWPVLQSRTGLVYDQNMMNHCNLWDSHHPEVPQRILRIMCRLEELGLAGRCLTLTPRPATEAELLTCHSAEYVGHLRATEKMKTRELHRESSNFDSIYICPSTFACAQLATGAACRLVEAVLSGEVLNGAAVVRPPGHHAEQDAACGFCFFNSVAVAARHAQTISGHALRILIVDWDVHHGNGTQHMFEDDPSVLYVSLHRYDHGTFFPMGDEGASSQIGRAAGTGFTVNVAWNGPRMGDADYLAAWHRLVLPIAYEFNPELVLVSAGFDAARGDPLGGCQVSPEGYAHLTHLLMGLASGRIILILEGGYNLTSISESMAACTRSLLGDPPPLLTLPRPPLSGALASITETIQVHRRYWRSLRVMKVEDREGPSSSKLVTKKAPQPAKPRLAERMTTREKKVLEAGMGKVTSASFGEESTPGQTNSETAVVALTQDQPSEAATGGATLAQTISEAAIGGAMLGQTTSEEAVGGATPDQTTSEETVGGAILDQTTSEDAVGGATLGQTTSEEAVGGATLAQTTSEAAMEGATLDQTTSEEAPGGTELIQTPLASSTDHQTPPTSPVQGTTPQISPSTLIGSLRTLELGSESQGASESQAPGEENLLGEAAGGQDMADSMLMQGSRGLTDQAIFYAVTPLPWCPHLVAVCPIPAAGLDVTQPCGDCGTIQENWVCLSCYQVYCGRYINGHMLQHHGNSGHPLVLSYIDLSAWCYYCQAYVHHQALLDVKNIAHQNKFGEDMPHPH
Protocol: SAHA served as the assay’s positive control. The HeLa nuclear extract was used as a source of HDAC activity. The trypsinized HeLa cells were tallied, put into 96-well microtiter plates, and nurtured. Samples and the standard were placed in wells at a concentration of 100 µL. The culture environment was maintained as per the procedure. 3,3′,5,5′-tetramethylbenzidine (TMB) was included for visualization. Finally, 50 µL of halt solution was smeared. The samples and different SAHA concentrations (0.01, 0.1, 1, 10 μM) were introduced to the appropriate well and left for 72 h. BioTek Epoch (Winooski, VT, USA) microplate reader was used to quantify optical density at 450 nm. The Graph Pad Prism 5 helped to determine the IC50 values.

MCF-7 cells [3] = assay: Apoptosis study, acridine orange/ethidium bromide dual staining; assay type: cell-based, human; settings: AO/EtBr staining, MCF-7, 40, 60, 80 µg/mL
Protocol: The staining technique was performed to determine changes in cellular morphology as acridine orange is a cell-permeable dye; i.e., it can enter inside the nucleus and subsequently intercalate with the DNA of both live and apoptotic cells an then emit a green fluorescence. On the other hand, ethidium bromide can only cross the plasma membrane of compromised or late apoptotic cells and bind with their DNA, subsequently radiating an orange to red fluorescence. Therefore, to assess alterations in the morphology of cells, MCF-7 cells were planted in a 12-well plate at a density of 5 × 10^4 cells/well and incubated in humidified air for 24 h at 37 °C. Following cell seeding, MCF-7 cells were exposed to compound VI(i) with at lower (40 µg/mL), IC50 (60 µg/mL), and higher (80 µg/mL) concentrations. Following this, the incubated cells were washed with a buffer (phosphate-buffered saline), and dual staining was executed with acridine orange and ethidium bromide. Then, a 12-well cell culture plate was kept at 37 °C for 30 min of incubation. Consequently, cells were lightly rinsed with phosphate-buffered saline. Following this, pictures were obtained in the inverted fluorescence microscope using the red and green channels for both the dyes.

[4] = MCF-7, IC50 concentration (60 µg/mL)
[5] = MCF-7, lower concentration (40 µg/mL)

In the case of `COc1ccc(-c2cnn(CCCCCC(=O)NO)n2)cc1` [VI(i), N-Hydroxy-6-(4-(4-methoxyphenyl)-2H-1,2,3-triazol-2-yl)hexanamide], the “increment in early apoptotic cell population with respect to control” value (MCF-7 cells [1]; [4]) is reported as 9.58%, the “increment in late apoptotic cell population with respect to control” value (MCF-7 cells [1]; [4]) is reported as 12.6% and the “increment in early apoptotic cell population with respect to control” value (MCF-7 cells [1]; [5]) is reported as 5.61%. The “increment in late apoptotic cell population with respect to control” value (MCF-7 cells [1]; [5]) was 4.14%, the ROS level (MCF-7 cells [2]) was “significantly increased in concentration-dependent manner” and the IC50 (HDAC6) was 13.4 µM. For the same compound, the “apoptosis induction (cell morphology)” value (MCF-7 cells [3]) was “effectively trigger the apoptotic mode of cell death in breast cancer cells in a concentration-dependent manner”.
